In publication PMC5158083 (PLoS Pathogens, 2016):
“And” between values parts separate entries of the source, which are not always exact repeats. Identical values can stand only once. Non-standard residues stand in square brackets, D forms with d. Residues, ends and D or L forms follow the SMILES beside them. *: point of attachment. Sta = CC(C)C[C@H](N)[C@@H](O)CC(=O)O; Isovaleryl = CC(C)CC(=O)*

Tests used:
[1] = biological target: T1, May1 (Cryptococcus neoformans, UniProt J9VS02); test: May1 inhibition, fluorogenic IQ-2 assay (screen and IC50); type: biochemical; conditions: for IC50: 14.6 nM May1, 10 μM IQ-2, 100 mM MES 100 mM NaCl pH 4.5, 10 min preincubation, read-out: IC50 against May1
T1 construct: endogenous in cells; host or cells: wild-type C. neoformans H99, 32-hour YNB culture supernatant, enriched on HiTrap DEAE
T1 sequence (J9VS02 99-455 limits assumed): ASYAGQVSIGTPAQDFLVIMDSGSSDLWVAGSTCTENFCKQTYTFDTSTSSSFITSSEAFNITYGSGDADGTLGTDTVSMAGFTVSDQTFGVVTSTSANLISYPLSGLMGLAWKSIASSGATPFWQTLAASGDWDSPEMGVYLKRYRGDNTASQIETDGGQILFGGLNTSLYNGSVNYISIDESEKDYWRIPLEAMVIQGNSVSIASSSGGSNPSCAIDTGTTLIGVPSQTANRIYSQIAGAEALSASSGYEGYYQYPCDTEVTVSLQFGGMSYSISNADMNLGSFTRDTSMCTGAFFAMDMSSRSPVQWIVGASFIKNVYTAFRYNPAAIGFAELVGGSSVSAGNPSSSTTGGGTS
Experimental: Assays were conducted at room temperature on a Biotek Synergy H4 plate reader in a 50 μl volume using 96-well round bottom, polystyrene plates (Corning) with λex 328 nm λem 393 nm unless otherwise stated. Substrates were each 7 or 8 amino acids with 7-methoxycoumarin-4-acetic acid or 7-methoxycoumarin-4-yl-acetyl-L-lysine on the amino terminus, and at the carboxyl terminus 4-dinitrophenyl-L-lysine or 4-dinitrophenyl bound directly to the carboxyl terminus as indicated (For sequences see S1 Table). Substrates were assayed at a 10 μM final concentration from DMSO stocks. Biotek Gen5 software was used to calculate initial velocities in relative fluorescent units per second (RFU/sec) from 20 points over the linear portion of each assay. To assay activity, YNB conditioned media was adjusted to pH 4.5 using 100 mM MES, 100 mM NaCl buffer, […] at a final concentration of 26 mM MES, 26 mM NaCl, unless otherwise stated. Conditioned DMEM media was first buffer exchanged into PBS using a centrifugal filter unit with a 3 kDa cutoff (Millipore) before use. The peptidase inhibitors pepstatin A, 1-10-phenanthroline, AEBSF and E64 were dissolved in DMSO and were obtained from Sigma-Aldrich.
To concentrate secreted May1, YNB conditioned media was prepared as described above from 32-hour cultures of wild-type C. neoformans. The media was then diluted 2.7-fold into buffer A (50 mM Tris base pH 8), chosen to increase the pH in order to limit May1 autoproteolysis, dilute salts in the media (final conductivity ~6%), and confer a negative charge to the peptidase domain. The media was then loaded onto a 1 ml HiTrap DEAE fast flow column (GE Healthcare) using a fast protein liquid chromatography system with a flow rate of 1.5 ml/min. May1 was eluted using a 30 minute linear gradient of 0–100% buffer B (50 mM Tris base, 1 M NaCl, pH 8). Active fractions were determined by measuring activity using the substrate IQ-2. They were then combined and approximate May1 concentration determined by active-site titration.
Published methods were followed with minor modifications.
IC50 calculations were conducted using 14.6 nM May1 (100 mM MES 100 mM NaCl pH 4.5). Inhibitor stocks were dissolved in DMSO and incubated with May1 for 10 minutes before addition of substrate. GraphPad Prism 6 was used to calculate IC50 values from a plot of the log of inhibitor concentration versus normalized response.

[2] = test system: peptidase activity in YNB conditioned media; test: Class-specific peptidase inhibitors on IQ substrate cleavage by YNB conditioned media; type: biochemical, Cryptococcus neoformans; conditions: 1 µM pepstatin
Experimental: (§1) Although peptidase activity was evident under both culture conditions, differential substrate cleavage reflected differences in specificity. […] Adjustment of YNB supernatants from pH 5.0 to 7.4 (the pH of DMEM media) yielded only very low levels of any peptidase activity, while lowering the pH of DMEM supernatants from 7.4 to pH 5.0 produced a peptidase activity pattern similar to YNB media (S1 Fig).
(§2) Assays were conducted at room temperature on a Biotek Synergy H4 plate reader in a 50 μl volume using 96-well round bottom, polystyrene plates (Corning) with λex 328 nm λem 393 nm unless otherwise stated. Substrates were each 7 or 8 amino acids with 7-methoxycoumarin-4-acetic acid or 7-methoxycoumarin-4-yl-acetyl-L-lysine on the amino terminus, and at the carboxyl terminus 4-dinitrophenyl-L-lysine or 4-dinitrophenyl bound directly to the carboxyl terminus as indicated (For sequences see S1 Table). Substrates were assayed at a 10 μM final concentration from DMSO stocks. […]
(§3) Supplementary file ppat.1006051.s001.pdf: S1 Fig Fluorogenic assays indicate the endopeptidase class present in conditioned media and the optimal pH for detection of activity. […] The activity scale is differs for this experiment because this assay was conducted on a SpectraMax Gemini plate reader (Molecular Devices) although conditions were otherwise equivalent. […]

[3] = test system: may1Δ C. neoformans; test: Culture density of may1Δ strain in YNB treated with May1 inhibitors; type: cell-based, Cryptococcus neoformans; conditions: YNB cultures
Experimental: Average values and S.D. of triplicate measurements are shown. (B) Density at saturation (after 48 hours of growth) is shown for YNB cultures of wild type or may1Δ C. neoformans treated with May1 inhibitors. Average values and S.D. of triplicates are shown.

[4] = test system: wild type C. neoformans; test: Culture density at saturation (OD600) of wild type C. neoformans in YNB treated with May1 inhibitors; type: cell-based, Cryptococcus neoformans; conditions: 2 μM pepstatin A
Experimental: Fig 5 May1 activity is required for wild-type growth at acidic pH. (A) Culture density was recorded over time by measuring OD600 of cultures grown in YNB. The average density and S.D. of triplicates are shown. (B) Culture density of wild-type C. neoformans grown in YNB containing 2 μM pepstatin A was recorded. Mock indicates DMSO treatment. The average and S.D. of cultures grown in triplicate are shown. (C) Mutant characterization assays were conducted using YNB agar plates. Cultures were adjusted to an OD600 of 5 and then spotted in 10-fold serial dilutions on plates. (D) Full rescue of may1Δ saturation density in YNB was observed after buffering to pH 6.5. Average density and S.D. of triplicates are shown.
Next, we selected the two best in vitro hits to test their potency in culture relative to pepstatin A by measuring inhibition of May1 and restriction of culture growth using fluorogenic assays and OD600 respectively. […] None of the three compounds affected the culture density of a may1Δ strain, consistent with the idea that May1 is the compounds’ relevant target in this context (S11 Fig). […] However, additional medicinal chemistry efforts are necessary for in vivo applications. Therefore, subsequent studies investigating the role of May1 in virulence were carried out using deletion strains of this enzyme. […]

[5] = test system: peptidase activity in DMEM conditioned media; test: Class-specific peptidase inhibitors on IQ substrate cleavage by DMEM conditioned media; type: biochemical, Cryptococcus neoformans; conditions: 1 mM 1-10-phenanthroline
Experimental: as §1, §2, §3

| SMILES | IC50 [1] | reduction of May1 activity ([1]; 1 μM inhibitor, substrate IQ-2) [%] | sensitivity of IQ substrate cleavage by conditioned YNB media to inhibitor [2] | effect on culture density of may1Δ cells [3] | inhibition of proteolysis of IQ-2 by enriched May1 ([1]; May1 enriched from YNB conditioned media) | saturation density of wild type cultures in YNB [4] | sensitivity of IQ substrate cleavage by DMEM conditioned media to inhibitor [5] |
| --- | --- | --- | --- | --- | --- | --- | --- |
| Cc1nc(COc2ccc(C[C@H](NC(=O)O[C@H]3CO[C@H]4OCC[C@H]43)[C@H](O)CN(CC(C)C)S(=O)(=O)c3ccc4c(c3)OCO4)cc2)cs1 [Brecanavir] | 352 nM and ~352 nM | 80 | – | – | – | – | – |
| CC(C)CC(=O)N[C@H](C(=O)N[C@H](C(=O)N[C@@H](CC(C)C)[C@@H](O)CC(=O)N[C@@H](C)C(=O)N[C@@H](CC(C)C)[C@@H](O)CC(=O)O)C(C)C)C(C)C [Pepstatin A, pepstatin A] (Isovaleryl-VV[Sta]A[Sta]-OH) | 1.4 nM | – | sensitive | no effect | fully inhibited | saturation density defect equivalent to that observed for the MAY1 deletion strains | – |
| c1cnc2c(c1)ccc1cccnc12 [1-10-phenanthroline] | – | – | – | – | – | – | sensitive |
